The results in this text go back to patent publication US20230286947A1, “COMPLEMENT FACTOR B INHIBITOR, AND PHARMACEUTICAL COMPOSITION, PREPARATION METHOD AND USE THEREOF” (SHANGHAI MEIYUE BIOTECH DEVELOPMENT CO. LTD, priority 2020, published 2023).

For data set [1], the target named is T1, complement factor B in human serum (Homo sapiens, UniProt P00751).
T1 construct: from tissue; host or cells: normal human serum (NHS)
The data set can be described thus: Complement hemolytic activity assay (rabbit erythrocytes, normal human serum). Format: cell-based. Conditions: rabbit erythrocytes, normal human serum, 37° C.; read-out: Hemolysis IC50. How it is done: The hemolysis experiment was carried out by referring to the description in Xuan Yuan et al., Haematologica. […] Prior to the experiment, the optimal concentration of normal human serum (NHS) required to achieve 100% lysis of rabbit erythrocytes (REs) was obtained by titration testing. […] REs (collected from healthy Japanese big-ear white rabbits) freshly suspended in a GVBO buffer comprising 10 mM Mg-EGTA were added to a final concentration of 1×10^8 cells/mL and incubated at 37° C. for 30 min. A GVBO buffer comprising 10 mM Mg-EGTA and comprising NHS and RE but no test compound was used as a positive control group (100% lysis). A GVBO buffer comprising 10 mM Mg-EGTA and comprising inactivated NHS (heated at 56° C. for 30 min or at 65° C. for 5 min) and RE but no test compound was used as a negative control group (0% lysis). The samples were centrifuged at 2000 g for 5 min, and the supernatant was collected. Absorbance at 415 nm (A415) was measured using a microplate reader (Molecular Devices, SpectraMax i3X). IC50 values were calculated from percent hemolysis as a function of test compound concentration by non-linear regression.

Another data set concerns the target Complement factor B (Homo sapiens, UniProt P00751). The experiment in a line: Optical surface plasmon resonance (SPR) binding capacity assay. Conditions: for Rmax (RU): test compound 500 μM, 25° C., 1:1 binding model. On the procedure: An SPR experiment was carried out at 25° C. In the experiment, a PBS buffer supplemented with 0.05% (v/v) P20 and 5% DMSO was used as a running buffer, and the analytical instrument Biacore 8K of GE Healthcare was used. A CM7 ship (GE Healthcare) was activated with 400 mM EDC and 100 mM NHS at a flow rate of 30 μL/min for 420 s. […] Then the assay chip was treated with 1 M ethanolamine hydrochloride at a flow rate of 10 μL/min for 300 s for chip blocking. The concentration of the test compound was 500 μM, the binding time was 120 s, and the dissociation time was 300 s. Data analysis was performed using a 1:1 binding model (Biacore Insight Evalution Software, Version 2.0.15.12933).
A general note: Surface plasmon resonance follows binding to a sensor surface in real time, without labels.

Data set [2] is described as follows: PK experiment of single intragastric administration to rats. Format: in vivo. Conditions: male, Wistar Han, plasma, po, rat, 3 mg/kg, mean. How it is done:
Six- to nine-week-old male Wistar han rats (from Shanghai Sippe-Bk Lab Animal Co., Ltd.) were fasted overnight. Each group consisted of 3 rats, and they were given the control compound, the compound of Example 5 and the compound of Example 6, respectively, by intragastric administration at 3 mg/kg at a volume of 10 mL/kg. 0.2 mL of blood was collected from the jugular vein at each time point, anticoagulated with EDTA-K2 and immediately centrifuged at 4000 rpm at 4° C. for 5 min. The supeatant was collected. The samples were cryopreserved in a freezer at −80° C. before analysis. Time points of blood collection: before administration, 5 min 15 min, 30 min, 1 h, 2 h, 4 h, 7 h and 24 h. […] After blood collection at all of the time points was completed, the animals were euthanized. The plasma samples were analyzed by LC-MS/MS. The data were used to calculate kinetic parameters (Tmax, Cmax, T½ and AUC) in the WinNonlin software.

A short description of data set [3]: Liver microsomal stability experiment (monkey). The data set is classed as in vitro ADME. Conditions: cynomolgus monkey liver microsomes; for half-life at 1 µM: pH 7.4, NADPH, read-out: MMS (monkey) T1/2. On the procedure: (§1) A 0.1 M solution of potassium dihydrogen phosphate in distilled water (comprising 1 mM ethylenediaminetetraacetic acid) was taken. Then the pH was adjusted to 7.4 with the 0.1 M solution of dipotassium phosphate in distilled water (comprising 1 mM ethylenediaminetetraacetic acid).
Monkey: Cynomolgus Monkey Liver Microsomes, Cat. No.: LM-SXH-02M, RILD Research Institute for Liver Diseases (Shanghai) Co. Ltd.
(§2) A 10 mM solution of each of the control compound and test compounds was prepared in DMSO. Then 10 μL of the solution was added to 190 μL of acetonitrile to form a 0.5 mM mother liquor. 1.5 μL of the 0.5 mM compound mother liquor was measured out, and […] of 20 mg/mL liver microsomes and 479.75 μL of the buffer were added. (The actual preparation amount can be adjusted according to use).
(§3) A 10 mg/mL solution of reduced coenzyme II (NADPH) was prepared in the buffer. A 96-well plate was placed on ice. Wells corresponding to different time points (0, 10, 30, 60 and 90 min, Non-NADPH) were set for each compound. 30 μL of the working solution was added to each well. For 0 min wells, 155 μL of glacial acetonitrile solution (the internal standard concentration was 1 μM) was added first, and after the mixtures were well mixed using a pipet, 15 μL of NADPH (10 mg/mL) was added. Before the reactions were started, the 96-well plate was pre-incubated on a microplate shaker at 37° C. for 5 min. Then 15 μL of NADPH (10 mg/mL) was added to each well to start the metabolic reactions. After the reactions were carried out for 10, 30, 60 and 90 min, 155 μL of glacial acetonitrile solution (the internal standard concentration was 1 μM) was added to the corresponding wells to terminate the reactions. After 90 min, the reaction in the Non-NADPH system was terminated by adding 155 μL of glacial acetonitrile solution (the internal standard concentration was 1 μM). After the reaction was completed, the 96-well plate was shaken on a microplate shaker (600 rpm) for 10 min and then centrifuged at 4° C. at 4000 g for 15 min. 50 μL of the supernatant was added to a new 2 mL 96-well plate, and 300 μL of deionized water was added. The mixture was analyzed on an AB SCIEX ExionLC-Triple Quad 5500 high performance liquid chromatograph-mass spectrometer. The Analyst 1.6.3 software was used.
(In general: Liver microsomes are a subcellular fraction often used to study metabolism.)

A short description of data set [4]: Liver microsomal stability experiment (human). Format: in vitro ADME. Conditions: for MMS (human) Remaining (T = 90 min): human liver microsomes; for half-life at 1 µM: pooled liver microsomes, pH 7.4, NADPH, read-out: MMS (human) T1/2. How it is done: as §1
Human – Pooled Human Liver Microsomes (Mongolian), Cat. No.: LM-R-02M, RILD Research Institute for Liver Diseases (Shanghai) Co. Ltd.
as §2, §3

Data set [5] is described as follows: Liver microsomal stability experiment (rat). Format: in vitro ADME. Conditions: for half-life at 1 µM: SD, pH 7.4, NADPH, read-out: MMS (rat) T1/2; for half-life at 1 µM / MMS (rat) Remaining (T = 90 min): rat liver microsomes; for liver microsomal stability (in words): statement covers rat, monkey and human liver microsomes (Table 3). How it is done:
as §1
Rat: SD Rat Liver Microsomes, Cat. No.: LM-DS-02M, RILD Research Institute for Liver Diseases (Shanghai) Co. Ltd.
as §2, §3

Data set [6] deals with Streptococcus-induced rheumatoid arthritis. The data set can be described thus: Streptococcus-induced rheumatoid arthritis (RA) model in rats. Conditions: 15 mpk intragastric daily for 25 days, FIG. 3. Format: in vivo, Lewis rats. How it is done:
In the experiment, six- to nine-week-old female Lewis rats (Beijing Vital River) were used. Each group consisted of 6 rats, and they were given the cell wall peptidoglycan complexes of Streptococcus and several other species of bacteria by intraperitoneal administration (2-3 mg per rat) on D1, and were given the control compound (15 mpk) and Example 5 (15 mpk) by intragastric administration daily for 25 consecutive days. The arthritis in rats was scored in different phases. The scoring criteria are as follows: Scoring according to the degree of lesion (redness and swelling) was performed on a scale of 0-4 points, with a maximum score of 4 for each limb and a total maximum score of 16 for each animal's limbs. The scoring criteria are as follows: 0 points: no redness and swelling; 1 point: 1-2 red and swollen interphalangeal joints; 2 points: 3-4 red and swollen interphalangeal joints; 3 points: more than 4 red and swollen interphalangeal joints; 4 points: severe redness and swelling in toes or fingers to ankle joints or wrist joints.

The term IC50 denotes the concentration that inhibits the measured activity by half. Usually AUC(0-inf) stands for the area under the concentration-time curve extrapolated to infinity. By AUC(0-t) is commonly meant the area under the concentration-time curve up to a stated or last time point. The Cmax is the peak of the concentration-time curve. As usually defined, the Tmax is the time from dosing to the highest level.

Sequence of Complement factor B (P00751 26-764): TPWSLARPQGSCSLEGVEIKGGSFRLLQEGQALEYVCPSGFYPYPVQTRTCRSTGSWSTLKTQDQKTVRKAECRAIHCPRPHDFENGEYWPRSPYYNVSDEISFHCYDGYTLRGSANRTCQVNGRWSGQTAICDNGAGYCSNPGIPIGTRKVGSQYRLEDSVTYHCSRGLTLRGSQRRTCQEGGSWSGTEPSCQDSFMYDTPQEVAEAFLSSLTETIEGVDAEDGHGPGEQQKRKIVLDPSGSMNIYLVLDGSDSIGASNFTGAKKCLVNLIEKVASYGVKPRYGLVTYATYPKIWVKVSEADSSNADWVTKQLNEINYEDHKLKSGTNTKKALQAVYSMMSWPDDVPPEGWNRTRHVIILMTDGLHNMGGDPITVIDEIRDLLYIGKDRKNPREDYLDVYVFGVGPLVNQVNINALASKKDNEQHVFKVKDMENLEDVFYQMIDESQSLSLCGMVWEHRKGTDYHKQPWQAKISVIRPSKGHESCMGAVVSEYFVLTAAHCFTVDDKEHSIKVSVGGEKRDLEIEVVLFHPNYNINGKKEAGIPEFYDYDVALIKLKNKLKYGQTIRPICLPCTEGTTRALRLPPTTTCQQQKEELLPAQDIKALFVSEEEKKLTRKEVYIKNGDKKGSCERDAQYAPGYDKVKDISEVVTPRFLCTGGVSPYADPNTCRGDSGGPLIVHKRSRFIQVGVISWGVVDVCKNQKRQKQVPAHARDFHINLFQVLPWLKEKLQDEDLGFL
T1 sequence (P00751 26-764): as above

Take `COc1cc(C)c2[nH]ccc2c1CN1CCC2CC2[C@H]1c1ccc(C(=O)O)cc1` (stereo partly drawn) [Example 22]: in data set [1], the IC50 worked out at 184 nM.

As to `COc1cc(C)c2[nH]ccc2c1CN1CC[C@H](OC2CC(F)(F)C2)C[C@H]1c1ccc(C(=O)O)cc1` [Example 16], in data set [1], the half-maximal inhibitory concentration (IC50) is 188 nM.

As for `COc1cc(C)c2[nH]ccc2c1CN1CC[C@H](OCC2CCC2)C[C@H]1c1ccc(C(=O)O)cc1` [Example 6], the “binding capacity to the target protein compared with the control compound” value on Complement factor B (at a concentration of 500 μM) is recorded as “significantly better than the control compound”. Moreover, on Complement factor B, the “Rmax (RU)” value is 106.5 RU. For the same molecule, in data set [2], the AUC(0-inf) was determined as 2260 ng·h/mL, the AUC(0-t) turned out to be 2190 ng·h/mL, the peak concentration (Cmax) was 1180 ng/mL and the time of peak concentration (Tmax) turned out to be 0.25 h. Besides, the half-life in data set [2] was 2.28 h. Further, the IC50 in data set [1] is 217 nM. In data set [3], the “MMS (monkey) Remaining (T = 90 min)” value is reported as 60.37% and the half-life at 1 µM is 2.17 h. Also, in data set [4], the “MMS (human) Remaining (T = 90 min)” value turned out to be 74.57% and the half-life at 1 µM came out at 3.96 h. Moreover, in data set [5], the half-life at 1 µM worked out at 0.986 h, the “MMS (rat) Remaining (T = 90 min)” value was determined as 33.55% and the “liver microsomal stability (in words)” value is “more significant liver microsomal stability”.

Turning to `COc1cc(C)c2[nH]ccc2c1CN1CCC(C(F)F)CC1c1ccc(C(=O)O)cc1` (stereo not drawn) [Example 10], the “Rmax (RU)” value at Complement factor B came to 30.7 RU. In data set [1], the IC50 was found to be 611 nM.

On to `COc1cc(C)c2[nH]ccc2c1CN1CCC2(CC1c1ccc(C(=O)O)cc1)CC2(F)F` (stereo not drawn) [Example 8], for which the “Rmax (RU)” value on Complement factor B is listed as 47.7 RU. In data set [1], the half-maximal inhibitory concentration (IC50) was 358 nM.

As for `CCO[C@H]1CCN(Cc2c(OC)cc(C)c3[nH]ccc23)[C@H](c2ccc(C(=O)O)cc2)C1` [Control compound, reference compound], in data set [2], the AUC(0-inf) was 2730 ng·h/mL, the AUC(0-t) was found to be 2530 ng·h/mL, the peak concentration (Cmax) was found to be 784 ng/mL and the Tmax came out at 0.33 h. The same molecule gave a half-life in data set [2] of 2.42 h. In addition, in data set [6], the arthritis score entry was “can improve the arthritis score”.

As to `COc1cc(C)c2[nH]ccc2c1CN1CC[C@H](OCC2CC2(F)F)C[C@H]1c1ccc(C(=O)O)cc1` (stereo partly drawn) [Example 25], in data set [1], the IC50 amounted to 234 nM.

Turning to `COc1cc(C)c2[nH]ccc2c1CN1CC[C@H](OC2CCC2)C[C@H]1c1ccc(C(=O)O)cc1` [Example 4], the “Rmax (RU)” value at Complement factor B is 29.1 RU. Also, the IC50 in data set [1] was determined as 280 nM. Besides, in data set [3], the “MMS (monkey) Remaining (T = 90 min)” value came to 80.68% and the half-life at 1 µM stood at 6.07 h. In addition, in data set [4], the “MMS (human) Remaining (T = 90 min)” value is reported as 84.79% and the half-life at 1 µM was 6.94 h. In data set [5], the half-life at 1 µM is 3.68 h, the “MMS (rat) Remaining (T = 90 min)” value turned out to be 72.23% and the “liver microsomal stability (in words)” value is on record as “more significant liver microsomal stability”.

With `CCOC1CC(c2ccc(C(=O)O)cc2)N(Cc2c(OC)cc(C)c3[nH]ccc23)C2CC12` (stereo not drawn) [Example 23], the IC50 in data set [1] came out at 853 nM.

On to `COc1cc(C)c2[nH]ccc2c1CN1CC[C@H](OC2CC2)C[C@H]1c1ccc(C(=O)O)cc1` [Example 3], for which the IC50 in data set [1] stood at 216 nM.

Regarding `COc1cc(C)c2[nH]ccc2c1CN1CC[C@H](OCC2CC2)C[C@H]1c1ccc(-c2nn[nH]n2)cc1` [Example 26], the IC50 in data set [1] is 319 nM.

On to `COc1cc(C)c2[nH]ccc2c1CN1CC[C@H](OC(F)(F)F)C[C@H]1c1ccc(C(=O)O)cc1` [Example 7], for which the “Rmax (RU)” value on Complement factor B is reported as 21.6 RU. Further, the IC50 in data set [1] was found to be 228 nM.

On to `COc1cc(C)c2[nH]ccc2c1CN1CCC(C(F)(F)F)CC1c1ccc(C(=O)O)cc1` (stereo not drawn) [Example 9], for which the “Rmax (RU)” value on Complement factor B was 23.3 RU. Besides, the IC50 in data set [1] is 725 nM.

Consider `COc1cc(C)c2[nH]ccc2c1CN1CCC(C)(F)CC1c1ccc(C(=O)O)cc1` (stereo not drawn) [Example 17], for which the IC50 in data set [1] came out at 391 nM.
